These results are taken from PMC7169845, “Synthesis and Bioactivity of Phthalimide Analogs as Potential Drugs to Treat Schistosomiasis, a Neglected Disease of Poverty” (Pharmaceuticals, 2020).

Some results are limits rather than exact numbers.

Data set [1] has as its system HepG2-A16-CD81EGFP cells. Put plainly: HepG2 cell cytotoxicity assay (CellTiter-Glo). The format is cell-based. The note with it: Homo sapiens, 72 h; for EC50: counter toxicity. The procedure: HepG2-A16-CD81EGFP cells (human hepatocarcinoma HepG2 cells stably transformed to express the tetraspanin CD81 receptor [51, 52]) were cultured at 37 °C in 5% CO2 in DMEM (without phenol red; Thermo Fisher Scientific, Waltham, MA, USA) supplemented with 10% FBS, 0.29 mg/mL glutamine, 100-unit penicillin and 100 μg/mL streptomycin. For cytotoxicity assays, compounds were prepared in 12-point 1:3 serial dilutions in DMSO starting at 10 mM. Then, 50 nL of compound (0.5% final DMSO concentration) were transferred with an Acoustic Transfer System (ATS) (Biosero) into white, solid bottom 1536-well assay plates (Greiner BioOne custom GNF mold; Monroe, NC, USA). Puromycin (12-point serial dilution starting at 10 μM) and 0.5% DMSO were used as positive and negative controls, respectively. After addition of compound, HepG2-A16-CD81EGFP cells in 10 µL of the above medium (5% FBS) were seeded into the assay plates at a density of 3,000 cells per well. Assay plates were incubated at 37 °C in 5% CO2for 72 h. To assess the HepG2 viability, the assay medium was removed by inverted centrifugation of the plate at 150 xg for 30 s. Then, 2 μL per well of CellTiter-Glo reagent (Promega diluted 1:2 with deionized water) was added using a MicroFlo liquid handler (BioTek). Immediately after addition of the CellTiter-Glo reagent, the luminescence was measured with an EnVision Multilabel reader (PerkinElmer). EC50 values were calculated using the normalized bioluminescence intensity and a non-linear, variable slope, four-parameter regression curve-fitting model in Prism 5 (GraphPad Software Inc., San Diego, CA, USA).
For orientation: Cellular ATP, detected with luciferase, serves as a proxy for viable cell number.

For data set [2], the system named is S. mansoni adults. Put plainly: Phenotypic screen of S. mansoni adult worms (severity score). The format is cell-based, Schistosoma mansoni. The note with it: for ADULT SEVERITY SCORES @ 10 µM, 1 h / ADULT SEVERITY SCORES @ 10 µM, 5 h / ADULT SEVERITY SCORES @ 10 µM, 24 h: score 0-4; for Adult Severity Score (10 µM) 1 h / Adult Severity Score (10 µM) 5 h / Adult Severity Score (10 µM) 24 h: score 0 to 4. The procedure: (§1) Functionalized Pht-based molecules were synthesized, and phenotypically screened at 10 µM as a function of time against S. Mansoni somules (up to 72 h) and adults (up to 24 h). The resulting phenotypes were classified using a previously described nomenclature that records the many non-exclusive changes (descriptors) that can occur in the parasite in response to chemical insult. Each descriptor is converted into a value from 0 (no effect) to 4 (maximal effect) to allow for comparisons of effects on the parasite between compounds [40, 41, 42, 43]. For consistency, we consider a score of 2 to be the minimum for a compound to be considered active.
(§2) Maintenance of the S. mansoni (Naval Medical Research Institute (NMRI) isolate), life cycle involved male Golden Syrian Hamsters and Biomphalaria glabrata snails (NMRI isolate), as the definitive and intermediate hosts, respectively. Use of hamsters was approved by the Institutional Animal Care and Use Committee of the University of California San Diego. The preparation of somules (post-infective larvae derived from infectious larvae called cercariae) and adult worms (≥42-days-old), and their co-incubation with test compounds using a customized Basch incubation medium were as described. Screens of two developmental stages were employed in order to identify compounds with a potential broader spectrum of efficacy than the current drug, PZQ, which is deficient in this regard. Screens with somules employed 96-well round-bottomed plates and 40–50 animals/well, whereas screens with adults employed 24-well flat-bottomed plates and approximately 5–7 males and 2–3 females/well. Screens employed a final compound concentration of 10 µM in DMSO (at 0.5% and 0.1% final concentrations for somules and adults, respectively). The complex and often dynamic phenotypic responses that the schistosome parasite is capable of were observed using an Axiovert A1 inverted microscope at the times indicated in the data table. Observations were codified using a defined nomenclature that involves simple “descriptors”, to convey changes in shape, motility and appearance compared to DMSO controls. Each descriptor was given a value of 1 and these were added up to yield a “severity score” with a maximum of 4. Evidence of degeneracy or death was awarded a value of 4 for adult parasites specifically, the inability to adhere to the bottom of the well using oral or ventral suckers was given a score of 1 and damage to the tegument (surface) was awarded a value of 4 on the understanding that such damage in vivo would compromise survival. Scores were averaged across the two experiments.

For data set [3], the system named is S. mansoni somules (schistosomula, post-infective larvae). Put plainly: Phenotypic screen of S. mansoni somules (severity score). The data set is classed as cell-based, Schistosoma mansoni. Details: key to SOMULE DESCRIPTORS @ 10 µM, 24 h: Dark = dark; S = Slow; O = overactive; I = Immobile; R = shape altered from normal (either larger or smaller); Deg = degenerative changes; D = dead; pD = "partial death:" % of worms in a well that appear to be dead. The note with it: for Somule Severity Score (10 µM) 24 h: score 0 (no effect) to 4 (maximum), averaged across two experiments; for SOMULE SEVERITY SCORES @ 10 µM, 24 / SOMULE SEVERITY SCORES @ 10 µM, 48 / SOMULE SEVERITY SCORES @ 10 µM, 72: score 0-4; for SOMULE SEVERITY SCORES @ 10 µM, 48 / Somule Severity Score (10 µM) 48 h: 48 h; for Somule Severity Score (10 µM) 48 h / Somule Severity Score (10 µM) 72 h: score 0 to 4. The procedure: as §1, §2

Usually IC50 stands for the concentration needed to halve the response being measured. A word on the EC50: it is the concentration at which the effect is half-maximal. Regarding `CC(c1nc2ccccc2n1Cc1cn(-c2ccc(F)cc2)nn1)N1C(=O)c2ccccc2C1=O` (stereo not drawn) [6y, 2-(1-(1-((1-(4-Fluorophenyl)-1H-1,2,3-triazol-4-yl)methyl)-1H-benzo[d]imidazol-2-yl)ethyl)isoindoline-1,3-dione], in data set [1], the IC50 was greater than 100 µM and the concentration for a half-maximal effect (EC50) was greater than 100 µM. In addition, in data set [2], the “ADULT SEVERITY SCORES @ 10 µM, 1 h” value is recorded as 0; the “Adult Severity Score (10 µM) 1 h” value amounted to 0; the “ADULT SEVERITY SCORES @ 10 µM, 5 h” value came out at 0; the “Adult Severity Score (10 µM) 5 h” value is 0. Further, in data set [2], the “ADULT SEVERITY SCORES @ 10 µM, 24 h” value is 0 and the “Adult Severity Score (10 µM) 24 h” value came out at 0. Also, in data set [3] (24 h), the “Somule Severity Score (10 µM) 24 h” value was determined as 0 and the “SOMULE SEVERITY SCORES @ 10 µM, 24” value is 0. In data set [3], the “SOMULE SEVERITY SCORES @ 10 µM, 48” value is reported as 0 and the “Somule Severity Score (10 µM) 48 h” value worked out at 0. In addition, in data set [3] (72 h), the “SOMULE SEVERITY SCORES @ 10 µM, 72” value is 0 and the “Somule Severity Score (10 µM) 72 h” value is recorded as 0.

For the compound `CCC(C)C(c1nc2ccccc2n1Cc1cn(-c2c(F)cccc2F)nn1)N1C(=O)c2ccccc2C1=O` (stereo not drawn) [6x, 2-(1-(1-((1-(2,6-Difluorophenyl)-1H-1,2,3-triazol-4-yl)methyl)-1H-benzo[d]imidazol-2-yl)-2-methylbutyl)isoindoline-1,3-dione], in data set [1], the IC50 was greater than 100 µM and the concentration giving a half-maximal response (EC50) was greater than 100 µM. Further, in data set [2], the “ADULT SEVERITY SCORES @ 10 µM, 1 h” value is listed as 0; the “Adult Severity Score (10 µM) 1 h” value came to 0; the “ADULT SEVERITY SCORES @ 10 µM, 5 h” value was found to be 0; the “Adult Severity Score (10 µM) 5 h” value came to 0. In data set [2], the “ADULT SEVERITY SCORES @ 10 µM, 24 h” value worked out at 0 and the “Adult Severity Score (10 µM) 24 h” value came to 0. In data set [3] (24 h), the “Somule Severity Score (10 µM) 24 h” value is 0 and the “SOMULE SEVERITY SCORES @ 10 µM, 24” value worked out at 0. In addition, in data set [3], the “SOMULE SEVERITY SCORES @ 10 µM, 48” value is 0 and the “Somule Severity Score (10 µM) 48 h” value was 0. For the same compound, in data set [3] (72 h, phenotypic descriptors), the “SOMULE DESCRIPTORS @ 10 µM, 72 h” value is given as “Dark, R”. Also, in data set [3] (72 h), the “SOMULE SEVERITY SCORES @ 10 µM, 72” value worked out at 2.

For the compound `Cc1ccc(-n2cc(Cn3c(C(C)N4C(=O)c5ccccc5C4=O)nc4ccccc43)nn2)cc1` (stereo not drawn) [6z, 2-(1-(1-((1-(p-Tolyl)-1H-1,2,3-triazol-4-yl)methyl)-1H-benzo[d]imidazol-2-yl)ethyl)isoindoline-1,3-dione], in data set [1], the IC50 was greater than 100 µM and the concentration giving a half-maximal response (EC50) was greater than 100 µM. In addition, in data set [2], the “ADULT SEVERITY SCORES @ 10 µM, 1 h” value was 0; the “Adult Severity Score (10 µM) 1 h” value turned out to be 0; the “ADULT SEVERITY SCORES @ 10 µM, 5 h” value is reported as 0; the “Adult Severity Score (10 µM) 5 h” value was found to be 0. Further, in data set [2], the “ADULT SEVERITY SCORES @ 10 µM, 24 h” value came out at 0 and the “Adult Severity Score (10 µM) 24 h” value stood at 0. Also, the “SOMULE DESCRIPTORS @ 10 µM, 24 h” value in data set [3] (24 h, phenotypic descriptors) was “R”. In data set [3] (24 h), the “Somule Severity Score (10 µM) 24 h” value turned out to be 1 and the “SOMULE SEVERITY SCORES @ 10 µM, 24” value turned out to be 1. Moreover, in data set [3], the “SOMULE SEVERITY SCORES @ 10 µM, 48” value came out at 0 and the “Somule Severity Score (10 µM) 48 h” value is given as 0. In data set [3] (72 h), the “SOMULE SEVERITY SCORES @ 10 µM, 72” value is 0 and the “Somule Severity Score (10 µM) 72 h” value is 0.

One may read the melting point as the temperature of the solid-liquid transition. The compound `CCC(C)C(c1nc2ccccc2n1Cc1cn(-c2ccncc2)nn1)N1C(=O)c2ccccc2C1=O` (stereo not drawn) [6u, 2-(2-Methyl-1-(1-((1-(pyridin-4-yl)-1H-1,2,3-triazol-4-yl)methyl)-1H-benzo[d]imidazol-2-yl)butyl)isoindoline-1,3-dione] yielded a melting point of 101 to 103 °C.

In turn, `CCC(C)C(c1nc2ccccc2n1Cc1cn(-c2ccccc2F)nn1)N1C(=O)c2ccc(C)cc2C1=O` (stereo not drawn) [6q, 2-(1-(1-((1-(2-Fluorophenyl)-1H-1,2,3-triazol-4-yl)methyl)-1H-benzo[d]imidazol-2-yl)-2-methylbutyl)-5-methylisoindoline-1,3-dione] showed a melting point of 114 to 116 °C.

`Cc1ccc2c(c1)C(=O)N(C(C)c1nc3ccccc3n1Cc1c[nH]nn1)C2=O` (stereo not drawn) [6k’, 2-(1-(1-((1H-1,2,3-Triazol-4-yl)methyl)-1H-benzo[d]imidazol-2-yl)ethyl)-5-methylisoindoline-1,3-dione] returned a melting point of 100 to 102 °C.

Consider `Cc1ccc2c(c1)C(=O)N(C(C)c1nc3ccccc3n1Cc1cn(-c3ccccc3)nn1)C2=O` (stereo not drawn) [6l’, 5-Methyl-2-(1-(1-((1-phenyl-1H-1,2,3-triazol-4-yl)methyl)-1H-benzo[d]imidazol-2-yl)ethyl)isoindoline-1,3-dione], for which the melting point fell in the range of 185 to 187 °C.

As to `CCC(C)C(c1nc2ccccc2n1Cc1cn(-c2c(F)c(F)c(F)c(F)c2F)nn1)N1C(=O)c2ccccc2C1=O` (stereo not drawn) [6t, 2-(2-Methyl-1-(1-((1-(perfluorophenyl)-1H-1,2,3-triazol-4-yl)methyl)-1H-benzo[d]imidazol-2-yl)butyl)isoindoline-1,3-dione], the melting point is 86 to 88 °C.

Take `CC(C)C(c1nc2ccccc2n1Cc1cn(-c2ccc(F)cc2F)nn1)N1C(=O)c2ccccc2C1=O` (stereo not drawn) [6t’, 2-(1-(1-((1-(2,4-Difluorophenyl)-1H-1,2,3-triazol-4-yl)methyl)-1H-benzo[d]imidazol-2-yl)-2-methylpropyl)isoindoline-1,3-dione]: the melting point lay within 100 to 102 °C.

For `Cc1ccc2c(c1)C(=O)N(C(CC(C)C)c1nc3ccccc3n1Cc1cn(Cc3ccccc3)nn1)C2=O` (stereo not drawn) [6f, 2-(1-(1-((1-Benzyl-1H-1,2,3-triazol-4-yl)methyl)-1H-benzo[d]imidazol-2-yl)-3-methylbutyl)-5-methylisoindoline-1,3-dione], the melting point lay within 142 to 144 °C.

In turn, `Cc1ccc2c(c1)C(=O)N(C(CC(C)C)c1nc3ccccc3n1Cc1cn(-c3ccccc3)nn1)C2=O` (stereo not drawn) [6g, 5-Methyl-2-(3-methyl-1-(1-((1-phenyl-1H-1,2,3-triazol-4-yl)methyl)-1H-benzo[d]imidazol-2-yl)butyl)isoindoline-1,3-dione] registered a melting point of 67 to 69 °C.

In turn, `CC(C)CC(c1nc2ccccc2n1Cc1cn(-c2ccc(F)cc2F)nn1)N1C(=O)c2ccccc2C1=O` (stereo not drawn) [6o, 2-(1-(1-((1-(2,4-Difluorophenyl)-1H-1,2,3-triazol-4-yl)methyl)-1H-benzo[d]imidazol-2-yl)-3-methylbutyl)isoindoline-1,3-dione] gave a melting point of 126 to 128 °C.

As to `Cc1ccc2c(c1)C(=O)N(C(CC(C)C)c1nc3ccccc3n1Cc1cn(-c3ccc(F)cc3)nn1)C2=O` (stereo not drawn) [6a, 2-(1-(1-((1-(4-Fluorophenyl)-1H-1,2,3-triazol-4-yl)methyl)-1H-benzo[d]imidazol-2-yl)-3-methylbutyl)-5-methylisoindoline-1,3-dione], the melting point fell in the range of 208 to 210 °C.

In the case of `CC(c1nc2ccccc2n1Cc1cn(Cc2ccccc2)nn1)N1C(=O)c2ccccc2C1=O` (stereo not drawn) [6e’, 2-(1-(1-((1-Benzyl-1H-1,2,3-triazol-4-yl)methyl)-1H-benzo[d]imidazol-2-yl)ethyl)isoindoline-1,3-dione], the melting point was in the range of 181 to 183 °C.
